Where a name gives a salt, the structure may show the parent alone.
Legend:
LD 50 intravenously = settings: in vivo; intravenous; 95% confidence limits in parentheses
Description: (§1) In every case, the compounds under test were administered orally. The results obtained are given in the table below which also gives the LD 50's (and their 95% confidence limits) of the compounds studied determined intravenously and orally.

LD 50 orally = settings: in vivo; oral; 95% confidence limits in parentheses
Description: as §1

[1] = known properties of comparison compounds; cited from earlier work
[2] = electric "battle test" (Tedeschi & al); format: in vivo; settings: oral; read-out: Electric Battle Test ED 50
Description: 3. the electric "battle test" (Tedeschi & al, J. Pharmacol., 1959, 125, pages […]); and
as §1

rat = test: anorexigenic effects in the rat trained to satisfy its alimentary needs in a period of 5 hours each 24 hours; format: in vivo; settings: oral, read-out: Anorexia ED 50
Description: 1. a study of the anorexigenic effects in the rat trained to satisfy its alimentary needs in a period of 5 hours each 24 hours;
as §1

mice = test: motor activity in mice in the hour following administration; format: in vivo; settings: 5 mg/kg, oral
Description: 2. the motor activity in mice in the hour following administration of the compound under test;
as §1

[3] = overall comparison of therapeutic index, activity and toxicity; format: in vivo; settings: compared with compounds II and III
Description: The compounds of formula IA and their salts have interesting pharmacological properties which make them of therapeutic interest.
as §1

SMILES: FC(F)(F)Sc1cccc(N2CCNCC2)c1 [III, N-(m-trifluoromethylthiophenyl)-piperazine]
- LD50 (LD 50 intravenously): 90 mg/kg
- LD50 (LD 50 orally): 210 mg/kg
- known pharmacological properties [1]: known to possess anorexigenic properties
- ED50 [2]: 15 mg/kg
- solubility in organic solvents (solubility; most usual organic solvents): soluble in water and in most usual organic solvents
- solubility in water (solubility): soluble in water
- ED50 (rat): 15 mg/kg
- Motor Activity (mice): 0%

SMILES: COC(=O)CCN1CCN(c2cccc(SC(F)(F)F)c2)CC1 [Example 5, N-(β-methoxycarbonyl-ethyl)-N'-(m-trifluoromethylthiophenyl)-piperazine hydrochloride]
- solubility in water (solubility): soluble in water

SMILES: Cl.N#CCCN1CCN(c2cccc(SC(F)(F)F)c2)CC1 [IA, N-(β-cyano-ethyl)-N'-(m-trifluoromethylthiophenyl)-piperazine hydrochloride]
- activity, overall [3]: higher activity
- therapeutic index [3]: better therapeutic index than compounds II and III
- toxicity [3]: lower toxicity
- LD50 (LD 50 intravenously): 180 mg/kg
- LD50 (LD 50 orally): 335 mg/kg
- ED50 [2]: 8 mg/kg
- solubility in water (solubility): soluble in water
- ED50 (rat): 11 mg/kg
- Motor Activity (mice): 0%

SMILES: FC(F)(F)c1cccc(N2CCNCC2)c1 [Compound II, N-(m-trifluoromethylphenyl)-piperazine, reference compound]
- LD50 (LD 50 intravenously): 80 mg/kg
- LD50 (LD 50 orally): 200 mg/kg
- known pharmacological properties [1]: known to possess anorexigenic and anxiolytic properties
- ED50 [2]: 15 mg/kg
- ED50 (rat): 25 mg/kg

Reference: patent US4031094A, “N-meta-trifluoromethylpiperazines” (Synthelabo, priority 1972, dated 1977)
